Several values for one entry are separate records, joined by “and”; a condition that tells them apart may be missing. Equal entries are not always repeated.
Tests used:
KAI1 promoter = KAI1 promoter luciferase reporter assay in transfected Caco2 cells; assay type: cell-based, human; conditions: Homo sapiens, Caco-2, 16 h, 1 μM compound, 16 hours, transfected Caco2 cells, luciferase activity relative to DMSO control (=1); read-out: Relative KAI promoter activity
Protocol: Experiments were conducted to evaluate the metastasis-related promoter activity-increasing effects of the compounds according to the present invention. Specifically, the KAI1 promoter reporter vector was used. In this case, the pRL-TK vector, a vector expressing renilla luciferase, was used as an internal control indicating the transfection efficiency in each transfected well.
First, 24 hours before transfection, 2×10^6 human colon cancer cell line, Caco2) cells were cultured in 10 ml of DMEM containing 10% FBS and 1% penicillin/streptomycin on a 100-mm-diameter plate, and then transformed with 5 μg of a pRL-TK vector mixture containing a transfection reagent and the KAI1 promoter, and then cultured in a 5% CO2 incubator at 37° C. for 48 hours. Thereafter, the adherent cells were detached using trypsin and counted using a hemacytometer, and then 5×10^3 transfected Caco2 cells in 100 μl of DMEM containing 10% FBS and 1% penicillin/streptomycin were seeded into each well of a 96-well plate and cultured in a 5% CO2 incubator at 37° C. for 24 hours. Next, 1 μM of each of the 305 compounds prepared in Examples 1 to 305 was added to each well, and after 16 hours, 100 μl of a lysis buffer for analysis containing a luciferase substrate was added, and the cells were lysed with stirring for 20 minutes. After completion of lysis, the cells were measured for luciferase activity using a luciferase reporter assay system (Promega, USA). […] In addition, data were analyzed at a significance level of p<0.05 by one-way ANOVA (Tukey's HSD), and SPSS 17.0 (Chicago, USA) statistical program was used. In Table 14 to 20, PHA is the PHA-665752, and KIT is KITENIN.

[1] = tested on: invasion of colorectal cancer cells; test: In vivo relative invation (invasion; EV and KITENIN controls, no method described); conditions: relative to EV (=1); KIT = KITENIN

With `Cc1cc(C)cc(C(=O)NCC(=O)c2ccc(N(C)C)cc2)c1` [Example 120, N-(2-(4-(dimethylamino)phenyl)-2-oxoethyl)-3,5-dimethylbenzamide] the fold induction at 1 µM (KAI1 promoter) was 1.38 and the “In vivo relative invation” value [1] was 1.097.
For `CCCCN(CCO)Cc1cccc(C(=O)NCC(=O)c2cccc(OC)c2)c1` [Example 288, 3-((butyl (2-hydroxyethyl)amino)methyl)-N-(2-(3-methoxyphenyl)-2-oxoethyl)benzamide], the fold induction at 1 µM (KAI1 promoter) was 1.73 and the “In vivo relative invation” value [1] was 1.222.
With `O=C(CNC(=O)c1ccccc1CN1CCN(c2ncccn2)CC1)c1ccccc1` [Example 300, N-(2-oxo-2-phenylethyl)-2-((4-(pyrimidin-2-yl)piperazin-1-yl)methyl)benzamide] the fold induction at 1 µM (KAI1 promoter) was 1.91 and the “In vivo relative invation” value [1] was 0.9869.
With `Cc1ccccc1C(=O)NCC(=O)c1ccc(Cl)cc1` [Example 51, N-(2-(4-chlorophenyl)-2-oxoethyl)-2-methylbenzamide] the fold induction at 1 µM (KAI1 promoter) was 1.81 and the “In vivo relative invation” value [1] was 1.513.
In the case of `COCC(=O)NCC(=O)c1ccc(N(C)C)cc1` [Example 106, N-(2-(4-(dimethylamino)phenyl)-2-oxoethyl)-2-methoxyacetamide], the fold induction at 1 µM (KAI1 promoter) is reported as 2.44 and the “In vivo relative invation” value [1] is reported as 1.171.
With `O=C(CNC(=O)c1cccc(Cl)c1)c1ccccc1` [Example 7, 3-chloro-N-(2-oxo-2-phenylethyl)benzamide] the fold induction at 1 µM (KAI1 promoter) was 1.2 and the “In vivo relative invation” value [1] was 1.091.
With `CN(C)c1ccc(C(=O)CNC(=O)c2ccco2)cc1` [Example 92, N-(2-(4-(dimethylamino)phenyl)-2-oxoethyl)furan-2-carboxamide] the fold induction at 1 µM (KAI1 promoter) was 2.29 and the “In vivo relative invation” value [1] was 1.064.
In the case of `O=C(CNS(=O)(=O)c1ccccc1)c1ccc(N2CCOCC2)cc1` [Example 148, N-(2-(4-morpholinophenyl)-2-oxoethyl)benzenesulfonamide], the fold induction at 1 µM (KAI1 promoter) is reported as 1.44 and the “In vivo relative invation” value [1] is reported as 1.844.
With `O=C(CNC(=O)c1ccccc1OC1CCN(C(=O)c2ccc(F)cc2)CC1)c1ccccc1` [Example 154, 2-((1-(4-fluorobenzoyl)piperidin-4-yl)oxy)-N-(2-oxo-2-phenylethyl)benzamide] the fold induction at 1 µM (KAI1 promoter) was 1.05 and the “In vivo relative invation” value [1] was 1.173.
In the case of `CCOC(=O)N1CCN(Cc2ccccc2C(=O)NCC(=O)c2ccccc2)CC1` [Example 305, ethyl 4-(2-((2-oxo-2-phenylethyl)carbamoyl)benzyl)piperazine-1-carboxylate], the fold induction at 1 µM (KAI1 promoter) is reported as 1.14 and the “In vivo relative invation” value [1] is reported as 1.186.
With `O=C(CNC(=O)c1ccccc1OC1CCN(C(=O)c2cccc(Cl)c2)CC1)c1ccccc1` [Example 157, 2-((1-(3-chlorobenzoyl)piperidin-4-yl)oxy)-N-(2-oxo-2-phenylethyl)benzamide] the fold induction at 1 µM (KAI1 promoter) was 1.05 and the “In vivo relative invation” value [1] was 1.089.
`Cc1[nH]c(/C=C2\C(=O)Nc3ccc(S(=O)(=O)Cc4c(Cl)cccc4Cl)cc32)c(C)c1C(=O)N1CCC[C@@H]1CN1CCCC1` [PHA, PHA-665752, reference compound] was tested, and the fold induction at 1 µM (KAI1 promoter) was 1.43.
For `O=C(CNC(=O)c1ccccc1OC1CCN(C(=O)C2CC2)CC1)c1ccccc1` [Example 166, 2-((1-(cyclopropanecarbonyl)piperidin-4-yl)oxy)-N-(2-oxo-2-phenylethyl)benzamide], the fold induction at 1 µM (KAI1 promoter) was 1.01 and the “In vivo relative invation” value [1] was 1.094.
`O=C(COc1ccccc1C(=O)NCC(=O)c1ccccc1)Nc1ccccc1` [Example 201, 2-(2-oxo-2-(phenylamino)ethoxy)-N-(2-oxo-2-phenylethyl)benzamide] was tested, and the fold induction at 1 µM (KAI1 promoter) was 1.46 and the “In vivo relative invation” value [1] was 0.9283.
`O=C(CNC(=O)c1ccc(F)cc1)c1cccnc1` [Example 133, 4-fluoro-N-(2-oxo-2-(pyridin-3-yl)ethyl)benzamide] was tested, and the fold induction at 1 µM (KAI1 promoter) was 1.15 and the “In vivo relative invation” value [1] was 1.32.
For `O=C(COc1ccccc1C(=O)NCC(=O)c1ccccc1)Nc1cccc(O)c1` [Example 223, 2-(2-((3-hydroxyphenyl)amino)-2-oxoethoxy)-N-(2-oxo-2-phenylethyl)benzamide], the fold induction at 1 µM (KAI1 promoter) was 1.1 and the “In vivo relative invation” value [1] was 1.195.
In the case of `COc1cccc(C(=O)CNC(=O)c2cccc(CN3CC(C)OC(C)C3)c2)c1` (stereo not shown) [Example 295, 3-((2,6-dimethylmorpholino)methyl)-N-(2-(3-methoxyphenyl)-2-oxoethyl)benzamide], the fold induction at 1 µM (KAI1 promoter) is reported as 1.52 and the “In vivo relative invation” value [1] is reported as 1.311.
For `CN(Cc1ccccc1)Cc1cccc(C(=O)NCC(=O)c2ccccc2)c1` [Example 242, 3-((benzyl(methyl)amino)methyl)-N-(2-oxo-2-phenylethyl)benzamide], the fold induction at 1 µM (KAI1 promoter) was 1.17 and the “In vivo relative invation” value [1] was 1.146.
`O=C(CNC(=O)c1cccc(CN2CCC(N3CCCCC3)CC2)c1)c1ccccc1` [Example 237, 3-([1,4′-bipiperidin]-1′-ylmethyl)-N-(2-oxo-2-phenylethyl)benzamide] was tested, and the fold induction at 1 µM (KAI1 promoter) was 1.56 and the “In vivo relative invation” value [1] was 1.114.
With `Cc1cccc(C(=O)NCC(=O)c2ccc(N3CCOCC3)cc2)c1` [Example 141, 3-methyl-N-(2-(4-morpholinophenyl)-2-oxoethyl)benzamide] the fold induction at 1 µM (KAI1 promoter) was 1.06 and the “In vivo relative invation” value [1] was 1.393.
`COCC(=O)NCC(=O)c1ccc(Cl)cc1` [Example 65, N-(2-(4-chlorophenyl)-2-oxoethyl)-2-methoxyacetamide] was tested, and the fold induction at 1 µM (KAI1 promoter) was 0.84 and the “In vivo relative invation” value [1] was 1.191.
In the case of `O=C(CNC(=O)c1ccccc1F)c1ccc(Cl)cc1` [Example 44, N-(2-(4-chlorophenyl)-2-oxoethyl)-2-fluorobenzamide], the fold induction at 1 µM (KAI1 promoter) is reported as 0.98 and the “In vivo relative invation” value [1] is reported as 0.9752.
`O=C(COc1ccccc1C(=O)NCC(=O)c1ccccc1)Nc1cccnc1` [Example 208, 2-(2-oxo-2-(pyridin-3-ylamino)ethoxy)-N-(2-oxo-2-phenylethyl)benzamide] was tested, and the fold induction at 1 µM (KAI1 promoter) was 1.14 and the “In vivo relative invation” value [1] was 1.184.
For `CS(=O)(=O)NCC(=O)c1ccccc1` [Example 25, N-(2-oxo-2-phenylethyl)methanesulfonamide], the fold induction at 1 µM (KAI1 promoter) was 1.49 and the “In vivo relative invation” value [1] was 1.215.
In the case of `O=C(CNC(=O)c1ccccc1CN1CCOCC1)c1ccccc1` [Example 304, 2-(morpholinomethyl)-N-(2-oxo-2-phenylethyl)benzamide], the fold induction at 1 µM (KAI1 promoter) is reported as 1.24 and the “In vivo relative invation” value [1] is reported as 1.193.
In the case of `C/C=C/C(=O)NCC(=O)c1cccnc1` [Example 134, (E)-N-(2-oxo-2-(pyridin-3-yl)ethyl)but-2-enamide], the fold induction at 1 µM (KAI1 promoter) is reported as 1.09 and the “In vivo relative invation” value [1] is reported as 1.297.
In the case of `COc1ccc(CNC(=O)COc2ccccc2C(=O)NCC(=O)c2ccccc2)cc1OC` [Example 215, 2-(2-((3,4-dimethoxybenzyl)amino)-2-oxoethoxy)-N-(2-oxo-2-phenylethyl)benzamide], the fold induction at 1 µM (KAI1 promoter) is reported as 0.975 and the “In vivo relative invation” value [1] is reported as 1.304.
In the case of `O=C(CNC(=O)C1CCCCC1)c1ccc(Cl)cc1` [Example 55, N-(2-(4-chlorophenyl)-2-oxoethyl)cyclohexanecarboxamide], the fold induction at 1 µM (KAI1 promoter) is reported as 0.67 and the “In vivo relative invation” value [1] is reported as 1.179.
`COc1cccc(C(=O)CNS(=O)(=O)c2ccccc2)c1` [Example 129, N-(2-(3-methoxyphenyl)-2-oxoethyl)benzenesulfonamide] was tested, and the fold induction at 1 µM (KAI1 promoter) was 1.3 and the “In vivo relative invation” value [1] was 1.298.
With KITENIN the “In vivo relative invation” value [1] was 1.419 and 1.156 and 1.58 and 1.288 and 1.205 and 1.369.
